Data taken from the supplement of paper PMC7214452.

Legend:
Assay in all cases: normalized area under the dose-response curve (viability relative to DMSO control) (fraction); higher = less sensitive (more viable cells)
Settings in all cases: exposure time not given
[1] = test system: AMO1 (cancer type: MM)
Method: (§1)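 25 myeloma and 15 non-Hodgkin lymphoma cell lines were exposed to each of 76 drugs as 7-point log dilutions (0.01 nM–10 µM) in duplicate. Viability was read with CellTiter-Glo and normalised to DMSO (0.1%) and staurosporine (10 µM) plate controls. Normalised AUC was calculated by the trapezoidal method relative to the negative control.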

[2] = test system: EJM (cancer type: MM)
Method: as §1

[3] = test system: FR4 (cancer type: MM)
Method: as §1

[4] = test system: Granta-519 (cancer type: Mantle)
Method: as §1

[5] = test system: HuT 78 (cancer type: TCL)
Method: as §1

[6] = test system: JJN3 (cancer type: MM)
Method: as §1

[7] = test system: JVM2 (cancer type: Mantle)
Method: as §1

[8] = test system: JeKo-1 (cancer type: Mantle)
Method: as §1

[9] = test system: KMS11 (cancer type: MM)
Method: as §1

[10] = test system: KMS12PE (cancer type: MM)
Method: as §1

[11] = test system: KMS18 (cancer type: MM)
Method: as §1

[12] = test system: KMS26 (cancer type: MM)
Method: as §1

[13] = test system: KMS28BM (cancer type: MM)
Method: as §1

[14] = test system: KMS28PE (cancer type: MM)
Method: as §1

[15] = test system: KMS34 (cancer type: MM)
Method: as §1

[16] = test system: Karpas-299 (cancer type: TCL)
Method: as §1

[17] = test system: L363 (cancer type: MM)
Method: as §1

[18] = test system: LP1 (cancer type: MM)
Method: as §1

[19] = test system: MM1.R (cancer type: MM)
Method: as §1

[20] = test system: MM1.S (cancer type: MM)
Method: as §1

[21] = test system: Mino (cancer type: Mantle)
Method: as §1

[22] = test system: My-La (cancer type: TCL)
Method: as §1

[23] = test system: NCI-H929 (cancer type: MM)
Method: as §1

[24] = test system: OCI-LY1 (cancer type: DLBCL)
Method: as §1

[25] = test system: OCI-LY19 (cancer type: DLBCL)
Method: as §1

[26] = test system: OCI-LY3 (cancer type: DLBCL)
Method: as §1

[27] = test system: OCI-MY5 (cancer type: MM)
Method: as §1

[28] = test system: OCI-MY5/CRBN (cancer type: MM)
Method: as §1

[29] = test system: OCI-MY5/Vec (cancer type: MM)
Method: as §1

[30] = test system: OCI-MY7 (cancer type: MM)
Method: as §1

[31] = test system: OPM2 (cancer type: MM)
Method: as §1

[32] = test system: RPMI 8226 (cancer type: MM)
Method: as §1

[33] = test system: SKMM2 (cancer type: MM)
Method: as §1

[34] = test system: SR-786 (cancer type: TCL)
Method: as §1

[35] = test system: SU-DHL1 (cancer type: TCL)
Method: as §1

[36] = test system: SU-DHL2 (cancer type: DLBCL)
Method: as §1

[37] = test system: SU-DHL6 (cancer type: DLBCL)
Method: as §1

[38] = test system: Se-Ax (cancer type: TCL)
Method: as §1

[39] = test system: U266 (cancer type: MM)
Method: as §1

[40] = test system: XG2 (cancer type: MM)
Method: as §1

## Cc1sc2c(c1C)C(c1ccc(Cl)cc1)=N[C@@H](CC(=O)Nc1ccc(O)cc1)c1nnc(C)n1-2 [otx-015]
[1]
  normalized area under the dose-response curve: 0.497
[2]
  normalized area under the dose-response curve: 0.685
[3]
  normalized area under the dose-response curve: 0.732
[4]
  normalized area under the dose-response curve: 0.902
[5]
  normalized area under the dose-response curve: 0.859
[6]
  normalized area under the dose-response curve: 0.568
[7]
  normalized area under the dose-response curve: 0.609
[8]
  normalized area under the dose-response curve: 0.84
[9]
  normalized area under the dose-response curve: 0.656
[10]
  normalized area under the dose-response curve: 0.59
[11]
  normalized area under the dose-response curve: 0.713
[12]
  normalized area under the dose-response curve: 0.395
[13]
  normalized area under the dose-response curve: 0.801
[14]
  normalized area under the dose-response curve: 0.681
[15]
  normalized area under the dose-response curve: 0.514
[16]
  normalized area under the dose-response curve: 0.628
[17]
  normalized area under the dose-response curve: 0.545
[18]
  normalized area under the dose-response curve: 0.701
[19]
  normalized area under the dose-response curve: 0.61
[20]
  normalized area under the dose-response curve: 0.56
[21]
  normalized area under the dose-response curve: 0.595
[22]
  normalized area under the dose-response curve: 0.796
[23]
  normalized area under the dose-response curve: 0.54
[24]
  normalized area under the dose-response curve: 0.752
[25]
  normalized area under the dose-response curve: 0.637
[26]
  normalized area under the dose-response curve: 0.759
[27]
  normalized area under the dose-response curve: 0.491
[28]
  normalized area under the dose-response curve: 0.641
[29]
  normalized area under the dose-response curve: 0.563
[30]
  normalized area under the dose-response curve: 0.4
[31]
  normalized area under the dose-response curve: 0.7
[32]
  normalized area under the dose-response curve: 0.642
[33]
  normalized area under the dose-response curve: 0.657
[34]
  normalized area under the dose-response curve: 0.695
[35]
  normalized area under the dose-response curve: 0.729
[36]
  normalized area under the dose-response curve: 0.558
[37]
  normalized area under the dose-response curve: 0.757
[38]
  normalized area under the dose-response curve: 0.657
[39]
  normalized area under the dose-response curve: 0.62
[40]
  normalized area under the dose-response curve: 0.622
